Test results: the Kinase Knowledgebase extract (Sharma et al. 2016)

Target: PIK3CA (human) (UniProt P42336)
Assay: Assessment of PIK3CA Kinase Activity

Sequence of PIK3CA (human) (P42336 whole entry, looked up): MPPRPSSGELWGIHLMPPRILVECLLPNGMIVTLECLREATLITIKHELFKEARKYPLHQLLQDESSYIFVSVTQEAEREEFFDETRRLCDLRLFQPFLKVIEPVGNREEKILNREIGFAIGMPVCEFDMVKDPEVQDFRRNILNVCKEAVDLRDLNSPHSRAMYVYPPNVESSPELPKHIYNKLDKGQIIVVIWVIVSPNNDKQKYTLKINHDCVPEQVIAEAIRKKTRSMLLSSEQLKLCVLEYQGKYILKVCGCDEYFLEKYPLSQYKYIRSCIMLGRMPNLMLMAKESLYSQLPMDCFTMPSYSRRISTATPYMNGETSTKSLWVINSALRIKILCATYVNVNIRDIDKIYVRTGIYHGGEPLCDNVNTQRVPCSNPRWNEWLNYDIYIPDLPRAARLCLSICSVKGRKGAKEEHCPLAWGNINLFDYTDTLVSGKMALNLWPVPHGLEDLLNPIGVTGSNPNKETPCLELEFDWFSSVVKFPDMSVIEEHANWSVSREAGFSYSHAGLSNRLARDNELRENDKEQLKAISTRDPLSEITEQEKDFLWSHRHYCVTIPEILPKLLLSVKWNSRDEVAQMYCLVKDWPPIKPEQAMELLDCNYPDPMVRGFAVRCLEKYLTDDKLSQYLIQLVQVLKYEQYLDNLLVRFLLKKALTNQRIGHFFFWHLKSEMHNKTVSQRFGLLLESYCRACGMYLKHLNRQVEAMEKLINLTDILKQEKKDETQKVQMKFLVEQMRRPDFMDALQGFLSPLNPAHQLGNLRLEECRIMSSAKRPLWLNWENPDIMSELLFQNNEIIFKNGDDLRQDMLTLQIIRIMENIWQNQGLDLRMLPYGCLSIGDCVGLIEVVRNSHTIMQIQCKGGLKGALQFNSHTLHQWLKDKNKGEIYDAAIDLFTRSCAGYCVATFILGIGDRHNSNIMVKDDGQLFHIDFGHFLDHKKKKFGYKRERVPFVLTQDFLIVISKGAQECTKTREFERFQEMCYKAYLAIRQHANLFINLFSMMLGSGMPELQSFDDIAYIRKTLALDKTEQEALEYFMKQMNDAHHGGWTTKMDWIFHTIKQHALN

Row | IC50 [nM] | Compound
1 | < 1000 | CC(C)n1ncnc1-c1nc2c(s1)CCOc1cc(C3CN(S(=O)(=O)C(C)C)C3)ccc1-2
2 | < 1000 | CN(C(=O)c1cc2c(s1)-c1ccc(C(=O)NCCS(C)(=O)=O)cc1OCC2)c1cc(C(=O)N2CC(F)(F)C2)ccc1Cl
3 | < 1000 | CN(C)CCCOc1ccc(-c2ccc3c(c2)OCCc2sc(-c4ncnn4CC(F)(F)F)nc2-3)cn1
4 | < 1000 | CC(O)CNc1ccc2c(n1)-c1sc(-c3ncnn3-c3ccc(F)cc3F)cc1CCO2 (stereo not given)
5 | < 1000 | O=C(c1nc2c(s1)CCOc1cc(-c3cn[nH]c3)ccc1-2)N1CCC[C@@H](CO)C1
6 | < 1000 | CC(C)n1c(-c2nc3c(s2)CCOc2cc(-c4cnn(CC5(C)COC5)c4)ccc2-3)n[nH]c1=O
7 | < 1000 | CC(C)n1ncnc1-c1nc2c(s1)CCOc1cc(O[C@@H](C)C(N)=O)ccc1-2
8 | < 1000 | CC(C)n1ncnc1-c1nc2c(s1)CCOc1cc(C3CN(Cc4ncco4)C3)ccc1-2
9 | < 1000 | Cc1ncccc1-c1ccc2c(c1)-c1nc(-c3ncnn3C(C)C)sc1CCO2
10 | < 1000 | CC(C)N(CCO)C(=O)c1nc2c(s1)CCOc1cc(-c3cnn(CCN4CCOCC4)c3)ccc1-2
11 | < 1000 | COc1ncccc1-c1ccc2c(c1)-c1nc(-c3ncnn3C(C)C)sc1CCO2
12 | < 1000 | CN(C(=O)c1nc2c(s1)CCOc1cc(-c3cn[nH]c3)ccc1-2)C1CCS(=O)(=O)C1 (stereo not given)
13 | < 1000 | CC(C)n1ncnc1-c1nc2c(s1)CCOc1cc(C3CN(S(C)(=O)=O)C3)ccc1-2
14 | < 1000 | O=C(c1nc2c(s1)CCOc1cc(-c3cn[nH]c3)ccc1-2)N1CC(F)(F)C1
15 | < 1000 | COc1ccccc1-c1ccc2c(c1)-c1nc(-c3ncnn3C(C)C)sc1CCO2
16 | < 1000 | C[C@@H]1CN(c2ccc3c(n2)-c2sc(-c4ncnn4-c4ccc(F)cc4F)cc2CCO3)C[C@H](C)N1C(=O)C(F)F
17 | < 1000 | CC(C)n1ncnc1-c1nc2c(s1)CCOc1ccc(C3CN(C(=O)[C@H](C)O)C3)cc1-2
18 | < 1000 | CNC(=O)c1ccc2c(c1)OCCc1cc(C(=O)N(C)c3cc(C(=O)N4CCNCC4)ccc3Cl)sc1-2
19 | < 1000 | COCCNC(=O)c1ccc2c(c1)OCCc1sc(-c3ncnn3C(C)C)nc1-2
20 | < 1000 | O=C(c1nc2c(s1)CCOc1cc(-c3cn[nH]c3)ccc1-2)N1CCN(CC2CC2)CC1
21 | < 1000 | C[C@@H]1CCCN(C(=O)c2nc3c(s2)CCOc2cc(-c4cn[nH]c4)ccc2-3)C1
22 | < 1000 | O=C(c1nc2c(s1)CCOc1cc(-c3cn[nH]c3)ccc1-2)N(CCO)C1CCCCC1
23 | < 1000 | COc1ccc(-c2ccc3c(n2)-c2sc(-c4ncnn4-c4ccc(F)cc4F)cc2CCO3)cn1

Row | IC50 [nM] | Compound
24 | < 1000 | O=S1(=O)CCC(n2cc(-c3ccc4c(c3)OCCc3sc(-c5ncnn5CC(F)(F)F)nc3-4)cn2)C1 (stereo not given)
25 | < 1000 | CC(C)Oc1cc(-c2ccc3c(c2)-c2nc(-c4ncnn4C(C)C)sc2CCO3)ccn1
26 | < 1000 | Oc1ccc(-c2ccc3c(n2)-c2sc(-c4ncnn4-c4ccc(F)cc4F)cc2CCO3)cn1
27 | < 1000 | CC(C)n1ncnc1-c1nc2c(s1)CCOc1ccc(-c3c[nH]c(=O)[nH]c3=O)cc1-2
28 | < 1000 | CC(C)n1ncnc1-c1nc2c(s1)CCOc1ccc(C3CN(Cc4ccccc4Cl)C3)cc1-2
29 | < 1000 | CC(C)n1ncnc1-c1nc2c(s1)CCOc1cc(C3CCN(S(C)(=O)=O)CC3)ccc1-2
30 | < 1000 | C[C@@H]1CN(c2ccc3c(n2)-c2sc(-c4ncnn4-c4ccc(F)cc4F)cc2CCO3)C[C@H](C)N1C
31 | < 1000 | CS(=O)(=O)c1cccc(-c2ccc3c(c2)OCCc2sc(-c4ncnn4CC(F)(F)F)nc2-3)c1
32 | < 1000 | CS(=O)(=O)N1CCN(c2ccc3c(n2)-c2sc(-c4ncnn4-c4ccc(F)cc4F)cc2CCO3)CC1
33 | < 1000 | CS(=O)(=O)N1CC(Nc2ccc3c(n2)-c2sc(-c4ncnn4-c4ccc(F)cc4F)cc2CCO3)C1
34 | < 1000 | CC(C)Nc1ccc2c(n1)-c1sc(-c3ncnn3-c3ccc(F)cc3F)cc1CCO2
35 | < 1000 | N#CCCN(C(=O)c1nc2c(s1)CCOc1cc(-c3cn[nH]c3)ccc1-2)C1CCCC1
36 | < 1000 | CC(C)n1nc(N)nc1-c1nc2c(s1)CCOc1cc(C3CN(CCS(C)(=O)=O)C3)ccc1-2
37 | < 1000 | CC(O)CCc1ccc2c(n1)-c1sc(-c3ncnn3-c3ccc(F)cc3F)cc1CCO2 (stereo not given)
38 | < 1000 | CC(C)n1ncnc1-c1nc2c(s1)CCOc1ccc(C3CCN(CC(N)=O)CC3)cc1-2
39 | < 1000 | CC(C)CN(C)C(=O)c1nc2c(s1)CCOc1cc(-c3cn[nH]c3)ccc1-2
40 | < 1000 | CN(C(=O)c1cc2c(s1)-c1ccc(C(=O)NCCS(C)(=O)=O)cc1OCC2)c1cc(C(=O)N2CCNCC2)ccc1Cl
41 | < 1000 | CN(C[C@H]1CCCO1)C(=O)c1nc2c(s1)CCOc1cc(-c3cn[nH]c3)ccc1-2
42 | < 1000 | CC(=O)N1CCN(C(=O)c2nc3c(s2)CCOc2cc(-c4cn[nH]c4)ccc2-3)CC1
43 | < 1000 | C[C@@H]1CCCN1C(=O)c1nc2c(s1)CCOc1cc(-c3cn[nH]c3)ccc1-2
44 | < 1000 | CNC(=O)CN1CCC(c2ccc3c(c2)OCCc2sc(-c4ncnn4C(C)C)nc2-3)CC1
45 | < 1000 | C[C@@H]1CN(c2ccc3c(n2)-c2sc(-c4ncnn4-c4ccc(F)cc4F)cc2CCO3)C[C@H](C)N1CCF
